Four compounds from the NIST ThermoML archive (doi:10.1016/j.fluid.2018.05.029) can be followed below.

Numbers after ± are expanded uncertainties.

The conditions of this data set: Liquid; Resistive pulse heating.
Take `CN1CCN(C)CC1` [1,4-dimethylpiperazine]: the Critical pressure is 3730 ± 120 kPa and the Critical temperature is given as 606 ± 6 K.

Turning to `O=C1CCCCCN1` [1-aza-2-cycloheptanone], the Critical pressure was found to be 4660 ± 140 kPa and the Critical temperature is on record as 801 ± 8 K.

For `CC1CNCC(C)N1` (stereo not drawn) [2,6-dimethylpiperazine], the Critical pressure is recorded as 3800 ± 120 kPa and the Critical temperature is 646 ± 6 K.

On to `C[S+](C)[O-]` [dimethyl sulfoxide], for which the Critical pressure is recorded as 5130 ± 160 kPa and the Critical temperature is 718 ± 7 K.
